Data taken from patent US4028351A, “Method for the preparation of derivatives of spiro (4,5)-decane and derivatives thus obtained” (Buskine S.A., priority 1971, dated 1977).

How the values were obtained:
Serotonine broncho-spasm = test: Broncho-spasm antagonist activity (Konzett and Roessler technique), serotonine; type: in vivo, guinea pigs; conditions: Cavia porcellus, iv, guinea pig, i.v., read-out: Broncho-spasm 50% approx. inhibiting dose, Serotonine
Procedure: (§1) c) the experiments on the antagonist activity against the bronochospasm
(§2) were carried out on guinea pigs, according to the technique taught by
(§3) Konzett and Roessler (Arch. Exper. Pathol. Pharm., 71, (1940), 195).

LD50 (rat) i.p. = conditions: in vivo, ip
[1] = tested on: Acetylcholine broncho-spasm; test: Broncho-spasm antagonist activity (Konzett and Roessler technique), acetylcholine; type: in vivo, guinea pigs; conditions: Cavia porcellus, iv, guinea pig, i.v., read-out: Broncho-spasm 50% approx. inhibiting dose, Acetylcholine
Procedure: as §1, §2, §3

kaolin induced oedema = test: Kaolin induced oedema (rat), anti-inflammatory activity; type: in vivo, Wistar rat
Source text: b) the data of anti-inflammatory activity are expressed as the volume
variation of the kaolin induced oedema in the Wistar rat;

Histamine broncho-spasm = test: Broncho-spasm antagonist activity (Konzett and Roessler technique), histamine; type: in vivo, guinea pigs; conditions: Cavia porcellus, iv, guinea pig, i.v., read-out: Broncho-spasm 50% approx. inhibiting dose, Histamine
Procedure: as §1, §2, §3

[2] = Heated plate test (mouse), analgesic activity; type: in vivo
Source text: a) the data of analgesic activity are expressed as the variation % of the
stimulation threshold in the mouse;

[3] = total dose 310 mg/kg per os (48 hours)
[4] = total dose 440 mg/kg per os (48 hours)

| Structure (SMILES) | ED50 (Serotonine broncho-spasm) [mg/kg] | LD50 (LD50 (rat) i.p.) [mg/kg] | ED50 [1] [mg/kg] | Kaolin induced oedema, volume variation % (kaolin induced oedema; total dose 70 mg/kg per os (48 hours)) [%] | ED50 (Histamine broncho-spasm) [mg/kg] | Heated plate test, % increase of threshold value ([2]; 10 mg/kg i.p.) [%] | Kaolin induced oedema, volume variation % (kaolin induced oedema; [3]) [%] | Heated plate test, % increase of threshold value ([2]; 40 mg/kg i.p.) [%] | Kaolin induced oedema, volume variation % (kaolin induced oedema; [4]) [%] | Heated plate test, % increase of threshold value ([2]; 100 mg/kg i.p.) [%] | Heated plate test, % increase of threshold value ([2]; 50 mg/kg i.p.) [%] | Kaolin induced oedema, volume variation % (kaolin induced oedema; total dose 340 mg/kg per os (48 hours)) [%] | Kaolin induced oedema, volume variation % (kaolin induced oedema; total dose 190 mg/kg per os (48 hours)) [%] | Heated plate test, % increase of threshold value ([2]; 25 mg/kg i.p.) [%] |
| --- | --- | --- | --- | --- | --- | --- | --- | --- | --- | --- | --- | --- | --- | --- |
| O=C1NCC2(CCN(CCc3ccc(F)cc3)CC2)O1 | 0.5 | 282 | 2 | 19.4 | 0.2 | 41.7 |  |  |  |  |  |  |  |  |
| O=C1NCC2(CCN(CCc3ccc4c(c3)OCO4)CC2)O1 | > 2.5 | 235 | > 2.5 |  | 0.2 |  | 39.5 | 80 |  |  |  |  |  |  |
| O=C1NCC2(CCN(CCOc3ccccc3)CC2)O1 | > 0.5 | 344 | > 0.5 |  | > 0.5 |  |  |  | 26.3 | 49 |  |  |  |  |
| O=C1NCC2(CCN(CCc3cccc(C(F)(F)F)c3)CC2)O1 | > 0.5 | 344 | > 0.5 |  | 0.5 |  | 10 |  |  |  | 45.6 |  |  |  |
| O=C1NCC2(CCN(Cc3ccccc3)CC2)O1 | > 0.5 | 319 | > 0.5 |  | > 0.5 |  |  |  |  | 93 |  | 9.4 |  |  |
| O=C1NCC2(CCN(CCc3ccccc3)CC2)O1 | 0.2 | 230 | 2 |  | 0.5 |  |  |  |  |  |  |  | 16.1 | 63.4 |
| O=C1NCC2(CCN(C(c3ccccc3)c3ccccc3)CC2)O1 | > 0.5 | 346 | > 0.5 |  | > 0.5 |  |  |  | 4.6 | 119 |  |  |  |  |
